The values that follow come from US11730712B2, “Functionalized long-chain hydrocarbon mono- and di-carboxylic acids and derivatives thereof, and their use for the prevention or treatment of disease” (ESPERVITA THERAPEUTICS, INC., priority 2021, dated 2023).

Series [1] has as its system mouse primary hepatocytes. The series is described as follows: 14C-acetate incorporation into total lipids in primary mouse hepatocytes. It is filed as cell-based. As to conditions: 4-hour period; for IC50: Hepatocyte, read-out: IC50 in μM, inhibition of 14C-acetate incorporation in total lipids. The method, then: After perfusion, collagen digested liver cells were re-suspended in William's E media (11 mM glucose) (Gibco) supplemented with 10% fetal bovine serum (FBS) (Gibco), 2 mM L-glutamine (Gibco) and 1% Antibiotic-Antimycotic (Gibco) mixture and seeded in white opaque 96-well plates. On the following day, the cells were serum-starved for 2 hours, then treated with 0 μM, 0.1 μM, 0.3 μM, 0.5 μM, 1 μM, 3 μM, 10 μM, and 100 μM of Compound I-32, Compound I-1, or Compound III-1 or Reference Compound (e.g., Compounds A-E and bempedoic acid) in the presence of ^14C-Acetate (1 μCi/ml, PerkinElmer). Each of Compound I-32, Compound I-1, Compound III-1, and Reference Compound was solubilized in 100% DMSO to a final concentration of 100 mM stock solution. In the experimental condition, the stock solution was diluted in serum free media (William's E media (11 mM glucose) (Gibco), 2 mM L-glutamine (Gibco) and 1% Anti biotic-Antimycotic) to yield the desired concentration of each compound. […] After 4 hours of treatment, the plates were washed two times with PBS (×1) and 100 μL microscint fluid (Microscint O, part #601361) was added in each well. Plates were wrapped with aluminum foil and were shaken at 250 rpm for 2 h. After 2 h of shaking, ^14C incorporation into lipid was determined by liquid scintillation counting using a TopCount NXT Microplate Scintillation and Luminescence Counter (Perkin Elmer).
The effects of Compound I-32. Compound I-1, and Compound III-1 on mouse primary hepatocyte lipogenesis are represented in Table 1. Each Compound was assayed at a concentration of 0 μM (vehicle control), 0.1 μM, 0.3 μM, 0.5 μM, 1 μM, 3 μM, 10 μM, and 100 μM, unless otherwise noted. Statistically significant inhibition was determined by one-way ANOVA and Dennett's post hoc test where appropriate. […] IC50 values were determined by nonlinear regression. All statistical analyses were carried out using GraphPad Prism 8 software. A p-value of less than or equal 0.05 was considered significant.

Series [2] relates to Acyl-CoA synthetase activity in rat liver microsomes. Nature of the series: Synthesis of CoA derivatives in rat liver microsomes (LCMS). As to conditions: 1 mM substrate, 30 min sample vs 0 min.
Experimental: Prior to the experiment a 1 mM working stock was created in primary hepatocyte media which was used to create the final dilution series of 0 (vehicle), 0.3, 1, 3, 10, and 30 μM. The final concentration of DMSO in all samples was <1%.
For initial validation of ACS activity using palmitate, 14C-palmitate was added (0.5 μCi/ml). Each sample was equilibrated at 37° C. while shaking for 10 min before the reaction was initiated by the addition of 0.04 mg of rat microsomal preparation (ThermoFisher Scientific. Cat #RTM-CPL, Lot #RT060-A) followed by incubation for 1, 3, 10, or 30 mins. Time 0 sample with no added microsomes was used as a control. The reaction was stopped by immediately placing the reaction tube on ice followed by the rapid addition of the reaction mixture to 2.25 ml ice-cold isopropanol/heptane/2M-sulfuric acid (40:10:1, vol/vol) in a 5 ml glass vial. […] For studies that involved measurement of 14C Palmitoyl-CoA formation, 200 μl of the lower aqueous phase was added to the 5 ml of scintillation fluid and the number of DPMs were determined by liquid scintillation counting for 5 minutes using a LS6500 Liquid Scintillation Counter (Beckman Coulter). […]
The reaction products were ionized by electrospray ion source (ESI) in positive mode. […] The resulting mass spectra were analyzed using the Xcalibur 2.1 Qualitative software package. […]
The subject of series [3] is Hepa1-6 murine hepatoma cells. The series is described as follows: Cell proliferation assay (presto blue, 72 h). It counts as cell-based, mouse. As to conditions: Mus musculus, Hepa1-6, 72 h; read-out: Hepa1-6 (IC50), anti-proliferation activity. The method, then: (§1) Cell cultures. Hep3B (ATCC) and Hepa1-6 (ATCC) cells were seeded in 96-well plates at a density of 3000 cells/well with complete media. On day 2, media in each well was aspirated and replaced with 100 μl of fresh complete media and cells were treated with or without Compound I-1, Compound I-32, Compound I1-84, and Compound I-85, in a concentration dependent manner. Then, cells were incubated in an incubator for 72 h. On day 5, 10 μl of presto blue (Invitrogen, cat #A13261) cell viability reagent was added in each 96-well plate and incubated at 37° C. for 1-2 h. After incubation, fluorescence was measured with an excitation/emission wavelength of 560/590 nm.
(§2) Proliferation assay. Hep3B (ATCC) and Hepa1-6 (ATCC) cells were seeded in 96-well plates at a density of 3000 cells/well with complete media. On day 2, media in each well was aspirated and replaced with 100 μl of fresh complete media and cells were treated with/without testing compounds in a concentration dependent manner. Then, cells were incubated in an incubator for 72 h. On day 5, 10 μl of presto blue (Invitrogen, cat #A13261) cell viability reagent was added in each 96-well plate and incubated at 37° C. for 1-2 h. After incubation, fluorescence was measured with an excitation/emission wavelength of 560/590 nm. Anti-proliferative combination effects of Compound I-1 or Compound I-32 and regorafenib were determined in Hep3B and Hepa1-6 cells. Drug combination interaction was determined by the Chou-Talalay method (23), which is based on well-known equations for different reaction sequences and mechanisms, and different types of inhibition. These equations provide the theoretical basis for the combination index (CI)-isobologram equation that allows quantitative determination of drug interactions, where CI<1, =1, and >1 indicate synergism, additive effect, and antagonism, respectively. CI is calculated based on in vitro measurements implemented in the Compusyn software (www.combosyn.com), a platform for drug combinations pharmacodynamics with automated simulations. The software calculates CI based on the Fractional Inhibition (Fa), which is the potency expressed by the average effect values for each drug concentrations as determined by in vitro experiments. The dose-effect data entries are utilized for automated computerized analysis by the Compusyn software.
(§3) Data entered was obtained by in vitro experiments performed as follows: Hep3B or Hepa 1-6 cells were plated in a 96-well format and cell proliferation rates were determined as described above. Cells were treated with 5 doses of each test agent alone at the following concentrations: compounds of the invention dosed at 1, 5, 10, 50, or 100 μM for both Hep3B and Hepa1-6 cells, regorafenib dosed at 0.015, 0.075, 0.15, 0.75, and 1.5 μM for Hep3B cells or 0.05, 0.25, 0.5, 2.5, 5 μM for Hepa 1-6 cells. […]. Data are shown as Fa-CI plots where CI is the combination index and Fa is fractional inhibition. Results were indicated as mean±standard deviation (SD). All bar diagrams and line graphs were prepared using Graph Pad Prism 8 software. Drug synergy was calculated using the CompuSyn software.
(§4) Methods: Hep3B cells (supplied by ATCC) and Hepa1-6 cells (supplied by ATCC) were seeded in 96-well plates at a density of 3000 cells/well with complete media. On day 2, the media in each well was aspirated and replaced with 100 μL of fresh complete media, and the cells were treated in a concentration dependent manner with either Compound I-1, Compound I-32, Compound I-84, Compound I-85, sorafenib, lenvatinib, Compound I-1 in combination with sorafenib. Compound I-1 in combination with lenvatinib, Compound I-32 in combination with sorafenib, or Compound I-32 in combination with lenvatinib. The cells were then incubated in an incubator at 37° C. for 72 h. On day 5, 10 μL of presto blue (Invitrogen, cat #A13261) cell viability reagent was added to each 96-well plate and incubated at 37° C. for 1-2 h. […]

Series [4] has as its system Hep3B human hepatocarcinoma cells. Nature of the series: Cell proliferation assay (presto blue, 72 h). As to conditions: Homo sapiens, Hep3B, 72 h; read-out: Hep3B (IC50), anti-proliferation activity. It counts as cell-based. The procedure:
as §1, §2, §3, §4

Series [5] deals with Hepa1-6 murine hepatoma cells. The series is described as follows: Colony formation assay (clonogenic survival, 7 days). As to conditions: Mus musculus, Hepa1-6, 168 h, read-out: Hepa1-6 (IC50), anti-clonogenic activity. It counts as cell-based. The procedure:
(§5) Colony formation assay. Hep3B and Hepa1-6 cells were seeded in 12-well plates at a cell density of 1000 and 500 cells/well, respectively. On day 2, media in each well was aspirated and replaced with 1000 μl of fresh complete media and cells were treated with or without the respective drugs in an increasing concentration followed by the incubation of the cells for 7 days in an incubator.
(§6) On day 9, the media in each well was aspirated and cells were fixed with 10% formalin (500 μl) for 10 minutes at room temperature. Formalin was aspirated and the plates were washed with 1×PBS and stained with crystal violet for another 10 minutes. After 10 minutes of staining, crystal violet was […] the cells, rinsed with tap water for three times and the plates were dried overnight. Next day, colonies (>50 cells) were counted and analyzed.
(§7) Statistical tests. Results were indicated as mean±standard deviation (SD). All line graphs were prepared using Graph Pad Prism 8 software. Proliferation and clonogenics IC50 values were calculated using a non-linear regression model in Graph pad Prism 8.

Series [6] concerns Hep3B human hepatocarcinoma cells. Described as above. It counts as cell-based. As to conditions: 168 h, read-out: Hep3B (IC50), anti-clonogenic activity. The method, then:
as §5, §6, §7

The target in series [7] is T1, Human ACC2 (Homo sapiens, UniProt O00763).
T1 construct: FLAG (C); His (C); purchased BPS Biosciences 50201; host or cells: Baculovirus infected Sf9 cells
T1 sequence (O00763 whole entry): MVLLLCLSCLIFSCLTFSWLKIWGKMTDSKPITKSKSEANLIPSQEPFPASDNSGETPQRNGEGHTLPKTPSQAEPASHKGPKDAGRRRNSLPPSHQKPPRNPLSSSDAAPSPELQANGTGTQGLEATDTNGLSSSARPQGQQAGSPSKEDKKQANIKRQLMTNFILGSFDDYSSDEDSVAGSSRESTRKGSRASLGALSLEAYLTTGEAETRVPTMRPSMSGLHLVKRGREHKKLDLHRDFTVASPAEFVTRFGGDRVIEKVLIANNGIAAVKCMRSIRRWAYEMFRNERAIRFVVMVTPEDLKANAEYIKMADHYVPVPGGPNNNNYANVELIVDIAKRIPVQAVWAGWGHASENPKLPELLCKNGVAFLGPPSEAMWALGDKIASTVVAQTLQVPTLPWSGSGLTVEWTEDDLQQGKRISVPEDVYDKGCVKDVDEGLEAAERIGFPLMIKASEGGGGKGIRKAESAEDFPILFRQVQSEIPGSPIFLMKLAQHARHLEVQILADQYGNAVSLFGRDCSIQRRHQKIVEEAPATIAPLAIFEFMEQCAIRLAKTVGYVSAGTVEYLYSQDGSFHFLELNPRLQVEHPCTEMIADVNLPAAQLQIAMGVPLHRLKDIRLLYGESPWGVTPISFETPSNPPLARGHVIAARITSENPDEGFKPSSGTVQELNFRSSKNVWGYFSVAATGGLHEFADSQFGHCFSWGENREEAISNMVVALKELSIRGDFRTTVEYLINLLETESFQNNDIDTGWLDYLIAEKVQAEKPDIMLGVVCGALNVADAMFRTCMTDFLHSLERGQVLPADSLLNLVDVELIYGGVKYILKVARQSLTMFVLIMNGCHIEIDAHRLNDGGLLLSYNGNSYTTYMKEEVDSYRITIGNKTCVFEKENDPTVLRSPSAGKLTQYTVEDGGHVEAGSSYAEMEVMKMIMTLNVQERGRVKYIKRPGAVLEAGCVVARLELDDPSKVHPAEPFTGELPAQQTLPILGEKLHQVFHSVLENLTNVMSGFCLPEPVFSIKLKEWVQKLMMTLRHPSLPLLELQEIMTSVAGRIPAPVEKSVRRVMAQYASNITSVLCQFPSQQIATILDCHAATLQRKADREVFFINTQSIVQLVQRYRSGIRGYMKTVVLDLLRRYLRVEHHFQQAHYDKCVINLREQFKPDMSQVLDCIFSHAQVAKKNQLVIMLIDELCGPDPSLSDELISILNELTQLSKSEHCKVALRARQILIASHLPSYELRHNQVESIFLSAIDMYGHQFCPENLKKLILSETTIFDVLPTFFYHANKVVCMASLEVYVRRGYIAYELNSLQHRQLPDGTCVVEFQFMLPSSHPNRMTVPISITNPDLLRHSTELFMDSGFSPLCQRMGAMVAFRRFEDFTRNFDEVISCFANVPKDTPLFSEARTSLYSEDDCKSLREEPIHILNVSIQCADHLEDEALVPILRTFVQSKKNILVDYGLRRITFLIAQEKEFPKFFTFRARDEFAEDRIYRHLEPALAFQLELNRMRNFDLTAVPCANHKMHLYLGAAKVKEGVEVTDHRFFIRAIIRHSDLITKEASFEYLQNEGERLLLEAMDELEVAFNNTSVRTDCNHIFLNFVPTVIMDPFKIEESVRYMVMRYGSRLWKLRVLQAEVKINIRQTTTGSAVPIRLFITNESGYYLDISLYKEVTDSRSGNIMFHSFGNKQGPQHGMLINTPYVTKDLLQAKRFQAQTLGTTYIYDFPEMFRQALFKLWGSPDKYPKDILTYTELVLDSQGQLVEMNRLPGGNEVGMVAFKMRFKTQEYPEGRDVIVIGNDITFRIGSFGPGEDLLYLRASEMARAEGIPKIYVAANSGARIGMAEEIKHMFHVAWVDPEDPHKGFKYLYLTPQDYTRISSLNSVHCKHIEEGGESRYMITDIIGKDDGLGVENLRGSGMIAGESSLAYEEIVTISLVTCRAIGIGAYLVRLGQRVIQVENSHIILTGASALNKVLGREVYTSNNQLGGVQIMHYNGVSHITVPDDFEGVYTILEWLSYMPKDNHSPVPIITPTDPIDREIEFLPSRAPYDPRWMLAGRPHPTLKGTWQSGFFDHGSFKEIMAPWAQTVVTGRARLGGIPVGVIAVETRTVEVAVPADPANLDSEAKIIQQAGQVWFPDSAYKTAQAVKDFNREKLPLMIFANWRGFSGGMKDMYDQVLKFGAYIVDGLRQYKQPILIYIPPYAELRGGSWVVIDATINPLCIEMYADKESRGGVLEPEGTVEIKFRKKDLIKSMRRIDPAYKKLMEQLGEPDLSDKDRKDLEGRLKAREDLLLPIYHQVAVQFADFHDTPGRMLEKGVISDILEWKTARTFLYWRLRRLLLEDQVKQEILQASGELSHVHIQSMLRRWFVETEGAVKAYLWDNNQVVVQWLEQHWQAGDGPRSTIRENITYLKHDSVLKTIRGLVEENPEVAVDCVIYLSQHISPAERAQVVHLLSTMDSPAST
The series is described as follows: ACC2 enzymatic assay (ADP-Glo). As to conditions: recombinant human ACC2 1 nM, 10 μM ATP, 10 μM acetyl CoA; Run 1-3; read-out: Compound IC50 (M) ACC2. It counts as biochemical. The method, then: (§8) Human ACC1 (Cat#50202 Lot #120830) and ACC2 (Cat #50201 Lot #160217) were obtained from BPS Biosciences, San Diego, Calif. 92121. Human ACC1 had C-terminal flag and His-tags with a MW of 270 KDa after purification from Baculovirus infected Sf9 cell expression system and came as a solution in 50 mM Tris-HCl, pH 8.0, 500 mM NaCl, 10% glycerol, 1 mM DTT, 100 μg/ml FLAG peptide with 70% purity. The stock concentration was 0.25 mg/ml corresponding to 0.926 μM. Human ACC2 was also purified from Baculovirus infected Sf9 expression system. […] The stock concentration was 0.1 mg/ml corresponding to 0.36 μM. The assay buffer for measuring the activity of ACC contained: 30 mM HEPES (pH 7.4), 2 mM MgCl2, 0.01% Brij35, 2 mM DTT, 1% DMSO (solvent for compound). For ACC1 and ACC2 assays, the following concentrations of substrate and cofactors were used: 12 mM NaHCO3, 10 μM acetyl CoA, 10 μM ATP, and 2 mM K-citrate. The recombinant human enzyme was used at 5 nM for ACC1 and 1 nM for ACC2. In brief, enzyme alone in the above buffer without substrate was used for background. All test materials were dissolved in 100% DMSO using acoustic technology (Echo550). The prepared solution was preincubated for 15 min followed by the addition of 5 μL/well of ADP standard. ATP was then added to start the reaction. The assay contents were spun and briefly shaken followed by incubation at room temperature for 1 h. At the end of completion of assay, 5 μL of ADP-Glo was added to each well to stop the reaction. The contents were mixed, spun and incubated at room temperature for 40 min followed by the addition of 10 μL/well of ADP detection reagent. The contents were spun, mixed and covered with plastic to measure luminescence. […] The light generated, measured in a luminometer, correlates to the amount of ADP generated in the ACC assay, which is indicative of ACC activity.
(§9) The enzyme concentrations for ACC1 and ACC2 were 5 nM and 1 nM, respectively.
Data represent nM or μM ADP produced, % Activity (relative to no inhibitor controls), and curve fits were performed by GraphPad Prism software. […]

For series [8], the target named is T2, Human ACC1 (Homo sapiens, UniProt Q13085).
T2 construct: FLAG (C); His (C); purchased BPS Biosciences 50202; host or cells: Baculovirus infected Sf9 cells
Nature of the series: ACC1 enzymatic assay (ADP-Glo). As to conditions: recombinant human ACC1 5 nM, 10 μM ATP, 10 μM acetyl CoA; Run 1-3; read-out: Compound IC50 (M) ACC1. It is filed as biochemical. The method, then: as §8, §9
Data represent nM or μM ADP produced, % Activity (relative to no inhibitor controls), and curve fits were performed by GraphPad Prism software. The IC50 concentration-response curves were generated for both the ACC1 and ACC2 assays using recombinant human ACC.

Take `CC(C)(CO)CCCCC(=O)CCCCC(C)(C)CO` [A]: the IC50 in series [1] amounted to 73.2 µM.

`CC(C)(CCCCCCC(=O)CCCCCCC(C)(C)C(=O)O)C(=O)O` [E]: the IC50 in series [1] came to 0.35 µM.

As for `CC(C)(CO)CCCCCC(=O)CCCCCC(C)(C)CO` [D], the IC50 in series [1] was 5.39 µM.

Turning to `CC(C)(CCCc1ccccc1CCCC(C)(C)C(=O)O)C(=O)O` [Compound I-61, 5-[2-(4-Carboxy-4-methylpentyl)-phenyl]-2,2-dimethylpentanoic acid], the “% change from control at 100 μM ± SEM(n), 14C-acetate incorporation in total lipids” value in series [1] is recorded as “+44 ± 8.1 (n = 4) %”.

In the case of `CC(C)(CCCCCC(=O)CCCCCC(C)(C)C(=O)O)C(=O)O` [C], the IC50 in series [1] was 0.46 µM.

Consider `CC(C)(CCCCCC(O)CCCCCC(C)(C)C(=O)O)C(=O)O` [BA, Bempedoic acid], for which the IC50 in series [1] turned out to be 0.68 µM.

On to `CC(C)(CCCc1ccccc1CCCC(C)(C)C(=O)SCCNC(=O)CCNC(=O)[C@H](O)C(C)(C)COP(=O)(O)OP(=O)(O)OC[C@H]1O[C@@H](n2cnc3c(N)ncnc32)[C@H](O)[C@@H]1OP(=O)(O)O)C(=O)O` [Compound I-61-CoA, 5-[2-(4-Carboxy-4-methylpentyl)-phenyl]-2,2-dimethylpentanoic acid Coenzyme A ester], for which, in series [2], the “formation of the CoA derivative, detection by LCMS” value was “could not be confirmed using fragmentation analysis”.

Take `CC(C)(CCCCC(=O)CCCCC(C)(C)C(=O)O)C(=O)O` [B]: in series [1], the “% change from control at 100 μM ± SEM(n), 14C-acetate incorporation in total lipids” value is listed as −69 ± 2.3 (n = 4) % and the IC50 amounted to 25.6 µM.

On to `CC(C)(CCCCc1cccc(CCCCC(C)(C)CC(=O)O)c1)CC(=O)O` [Compound I-85, 7,7′-(1,3-phenylene)bis(3,3-dimethylheptanoic acid)], for which the IC50 in series [3] is over 100 µM; in series [4], over 100 µM; in series [5], 61 µM; in series [6], 49.1 µM.

Consider `CC(C)(CCCc1ccc(CCCC(C)(C)C(=O)O)cc1)C(=O)O` [III-1, 5,5′-(1,4-phenylene)bis(2,2-dimethylpentanoic acid)], for which the IC50 in series [1] was found to be 27.7 µM.

Turning to `O=C(c1c2ccccc2cc2ccccc12)N1CCC(N2CCC[C@@H](C(=O)N3CCOCC3)C2)CC1` [CP 640186, reference compound], the values for the IC50 in series [7] and in series [8] were 7.81e-08 M and 2.14e-06 M, respectively.

On to `CC(C)(CCCCc1ccc(CCCCC(C)(C)CC(=O)O)cc1)CC(=O)O` [Compound I-84, 7,7′-(1,4-phenylene)bis(3,3-dimethylheptanoic acid)], for which the IC50 in series [3] is over 100 µM; in series [4], over 100 µM; in series [5], 64.9 µM; in series [6] it was 50.1 µM.

`CC(C)(CCCCCCCCCCCC(C)(C)C(=O)O)C(=O)O` [F]: the IC50 in series [1] was under 0.3 µM.
